Laboratory results from PubChem BioAssay AID256 (DTP/NCI, 2004).
Where “and” joins values, the source holds several entries; their conditions need not be identical. Equal entries are not always repeated. Inconclusive results and toxic doses are left out.

System: CD2F1 mice, L1210 leukemia ip, survival T/C
Test: NCI In Vivo Anticancer Drug Screen. Data for tumor model L1210 Leukemia (intraperitoneal) in CD2F1 (CDF1) mice
Details: higher = longer survival
Method in brief: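 Tumor-bearing mice (transplanted tumor) were split into treated and vehicle control groups, and the measured endpoint of each treated group was divided by that of its vehicle controls.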

[1] = endpoint: mean survival time, dose: 100.0 mg/kg/injection, schedule: Q01DX001 (ip), vehicle: saline with Tween-80
[2] = endpoint: mean survival time, dose: 200.0 mg/kg/injection, schedule: Q01DX001 (ip), vehicle: saline with Tween-80
[3] = endpoint: mean survival time, dose: 400.0 mg/kg/injection, schedule: Q01DX001 (ip), vehicle: saline with Tween-80
[4] = endpoint: mean survival time, dose: 50.0 mg/kg/injection, schedule: Q01DX009 (ip), vehicle: saline with Tween-80
[5] = endpoint: mean survival time, dose: 100.0 mg/kg/injection, schedule: Q01DX009 (ip), vehicle: saline with Tween-80
[6] = endpoint: mean survival time, dose: 200.0 mg/kg/injection, schedule: Q01DX009 (ip), vehicle: saline with Tween-80
[7] = endpoint: mean survival time, dose: 200.0 mg/kg/injection, schedule: Q01DX001 (ip), vehicle: saline
[8] = endpoint: mean survival time, dose: 100.0 mg/kg/injection, schedule: Q01DX001 (ip), vehicle: saline
[9] = endpoint: mean survival time, dose: 100.0 mg/kg/injection, schedule: Q04DX003 (ip), vehicle: saline with Tween-80
[10] = endpoint: mean survival time, dose: 200.0 mg/kg/injection, schedule: Q04DX003 (ip), vehicle: saline with Tween-80
[11] = endpoint: mean survival time, dose: 400.0 mg/kg/injection, schedule: Q01DX009 (ip), vehicle: saline with Tween-80
[12] = endpoint: mean survival time, dose: 400.0 mg/kg/injection, schedule: Q04DX003 (ip), vehicle: saline with Tween-80

CC1=C[P+](c2ccccc2)(c2ccccc2)C=C(c2ccccc2)O1
T/C (endpoint: median survival time, dose: 1.25 mg/kg/injection, schedule: Q01DX009 (ip), vehicle: suspension in saline): 108 % of control | T/C (endpoint: median survival time, dose: 2.5 mg/kg/injection, schedule: Q01DX009 (ip), vehicle: suspension in saline): 111 % of control | T/C (endpoint: median survival time, dose: 5.0 mg/kg/injection, schedule: Q01DX009 (ip), vehicle: suspension in saline): 113 % of control | T/C (endpoint: median survival time, dose: 10.0 mg/kg/injection, schedule: Q01DX009 (ip), vehicle: suspension in saline): 123 % of control | T/C (endpoint: median survival time, dose: 20.0 mg/kg/injection, schedule: Q01DX009 (ip), vehicle: suspension in saline): 104 % of control

Cc1c(N)cccc1F
T/C (endpoint: mean survival time, dose: 50.0 mg/kg/injection, schedule: Q01DX009 (ip), vehicle: saline sonified): 95 % of control | T/C (endpoint: mean survival time, dose: 100.0 mg/kg/injection, schedule: Q04DX003 (ip), vehicle: saline): 95 % of control | T/C (endpoint: mean survival time, dose: 200.0 mg/kg/injection, schedule: Q04DX003 (ip), vehicle: saline): 95 % of control

O=C1C(Cc2ccccc2)CCCC1Cc1ccccc1 (stereo not drawn)
T/C [1]: 100 % of control | T/C [2]: 98 % of control | T/C [3]: 102 % of control

CCCC/C=C/C1(O)CCCCC1
T/C [4]: 98 % of control | T/C [5]: 103 % of control | T/C [6]: 103 % of control

CCN(CCNc1ccc(C)c2sc3ccccc3c(=O)c12)CC(C)(C)O
T/C [7]: 112 % of control | T/C (endpoint: mean survival time, dose: 400.0 mg/kg/injection, schedule: Q04DX003 (ip), vehicle: saline): 174 % of control

COc1ccc2c(c1)C1(C)CCCC(C#N)=C1CC2 (stereo not drawn)
T/C [8]: 96 % of control | T/C [7]: 96 % of control | T/C (endpoint: mean survival time, dose: 400.0 mg/kg/injection, schedule: Q01DX001 (ip), vehicle: saline): 92 % of control

NC(=S)N/N=C/C(=O)c1ccc(Br)cc1
T/C [8]: 102 % of control | T/C [7]: 100 % of control

O=[N+]([O-])c1c(Cl)c(Cl)cc(Cl)c1Cl
T/C [5]: 94 % of control | T/C [9]: 93 % of control | T/C [6]: 96 % of control | T/C [10]: 97 % of control | T/C [11]: 98 % of control | T/C [12]: 98 % of control

O/N=C/c1ccc(O)cc1
T/C (endpoint: mean survival time, dose: 50.0 mg/kg/injection, schedule: Q04DX003 (ip), vehicle: saline with Tween-80): 94 % of control | T/C [9]: 91 % of control | T/C [10]: 97 % of control

O=C1CC(c2ccccc2)CO1 (stereo not drawn)
T/C [8]: 106 % of control | T/C [7]: 100 % of control

CC(O)C(=O)Oc1ccccc1 (stereo not drawn)
T/C (endpoint: mean survival time, dose: 50.0 mg/kg/injection, schedule: Q01DX009 (ip), vehicle: other): 92 % of control | T/C (endpoint: mean survival time, dose: 100.0 mg/kg/injection, schedule: Q01DX009 (ip), vehicle: other): 100 % of control | T/C (endpoint: mean survival time, dose: 200.0 mg/kg/injection, schedule: Q01DX009 (ip), vehicle: other): 102 % of control

COC1CC(CC2CCC(C)C(C(C)C(=O)O)O2)OC2(OC(C)(C3CCC(C)(C4OC(C5OC(O)(CO)C(C)CC5C)CC4C)O3)CC2C)C1C (stereo not drawn)
T/C (endpoint: mean survival time, dose: 0.31 mg/kg/injection, schedule: Q01DX009 (ip), vehicle: Klucel (hydroxypropylcellulose) (HPC)): 92 % of control | T/C (endpoint: mean survival time, dose: 0.63 mg/kg/injection, schedule: Q01DX009 (ip), vehicle: Klucel (hydroxypropylcellulose) (HPC)): 106 % of control | T/C (endpoint: mean survival time, dose: 1.25 mg/kg/injection, schedule: Q01DX009 (ip), vehicle: Klucel (hydroxypropylcellulose) (HPC)): 110 % of control | T/C (endpoint: mean survival time, dose: 2.5 mg/kg/injection, schedule: Q01DX009 (ip), vehicle: Klucel (hydroxypropylcellulose) (HPC)): 106 % of control

Oc1ccc2ccccc2c1Cl
T/C [9]: 104 % of control | T/C [10]: 112 % of control | T/C [12]: 108 % of control

C=CCCCCCCCCC(=O)NN1CCOCC1
T/C [5]: 94 % of control | T/C [6]: 91 % of control | T/C [11]: 94 % of control

[Cl][Pt+2]([Cl])([Cl])[Cl].[NH-]Cc1ccccc1C[NH-]
T/C (endpoint: mean survival time, dose: 5.0 mg/kg/injection, schedule: Q04DX003 (ip), vehicle: saline with Tween-80): 110 % of control | T/C (endpoint: mean survival time, dose: 10.0 mg/kg/injection, schedule: Q04DX003 (ip), vehicle: saline with Tween-80): 118 % of control | T/C (endpoint: mean survival time, dose: 20.0 mg/kg/injection, schedule: Q04DX003 (ip), vehicle: saline with Tween-80): 120 % of control | T/C (endpoint: mean survival time, dose: 40.0 mg/kg/injection, schedule: Q04DX003 (ip), vehicle: saline with Tween-80): 86 % of control

Cc1cccc(N)n1
T/C (endpoint: mean survival time, dose: 3.13 mg/kg/injection, schedule: Q04DX002 (ip), vehicle: saline): 94 % of control | T/C (endpoint: mean survival time, dose: 6.25 mg/kg/injection, schedule: Q04DX002 (ip), vehicle: saline): 90 % of control | T/C (endpoint: mean survival time, dose: 12.5 mg/kg/injection, schedule: Q04DX002 (ip), vehicle: saline): 90 % of control

O=[N+]([O-])c1ccc(NCc2ccccc2)c([N+](=O)[O-])c1
T/C (endpoint: mean survival time, dose: 100.0 mg/kg/injection, schedule: Q04DX003 (ip), vehicle: gum acacia): 98 % of control | T/C (endpoint: mean survival time, dose: 200.0 mg/kg/injection, schedule: Q04DX003 (ip), vehicle: gum acacia): 106 % of control | T/C (endpoint: mean survival time, dose: 400.0 mg/kg/injection, schedule: Q04DX003 (ip), vehicle: gum acacia): 102 % of control

CCOC(C(=O)OC1CCN(C)CC1)(c1ccccc1)c1ccccc1
T/C (endpoint: mean survival time, dose: 25.0 mg/kg/injection, schedule: Q01DX009 (ip), vehicle: saline with Tween-80): 98 % of control | T/C [4]: 98 % of control | T/C [5]: 93 % of control

Cc1ccc(-c2nc(-c3ccccc3)[nH]c(=O)c2CCO)cc1
T/C [9]: 94 % of control | T/C [10]: 92 % of control | T/C [12]: 88 % of control

C/C=C(\C)C1(CCC)C(=O)NC(=S)NC1=O
T/C (endpoint: mean survival time, dose: 75.0 mg/kg/injection, schedule: Q01DX001 (ip), vehicle: other): 106 % of control | T/C (endpoint: mean survival time, dose: 150.0 mg/kg/injection, schedule: Q01DX001 (ip), vehicle: other): 116 % of control

C=CCSc1ccccn1
T/C (endpoint: mean survival time, dose: 50.0 mg/kg/injection, schedule: Q01DX001 (ip), vehicle: carboxymethylcellulose (CMC)): 94 % of control | T/C (endpoint: mean survival time, dose: 100.0 mg/kg/injection, schedule: Q01DX001 (ip), vehicle: carboxymethylcellulose (CMC)): 86 % of control | T/C (endpoint: mean survival time, dose: 200.0 mg/kg/injection, schedule: Q01DX001 (ip), vehicle: carboxymethylcellulose (CMC)): 88 % of control | T/C (endpoint: mean survival time, dose: 400.0 mg/kg/injection, schedule: Q01DX001 (ip), vehicle: carboxymethylcellulose (CMC)): 94 % of control

CC12CCC(CC1CO)C2 (stereo not drawn)
T/C [9]: 88 % of control | T/C [10]: 87 % of control

C[n+]1cccc(/C=C/C(=O)Nc2ccccc2)c1
T/C [9]: 99 % of control | T/C [10]: 87 % of control

c1cc(NC2CCCCC2)ccc1CN1CCOCC1
T/C (endpoint: mean survival time, dose: 12.5 mg/kg/injection, schedule: Q01DX009 (ip), vehicle: saline + Tween-80 + alcohol): 99 % of control and 100 % of control | T/C (endpoint: mean survival time, dose: 25.0 mg/kg/injection, schedule: Q01DX009 (ip), vehicle: saline + Tween-80 + alcohol): 99 % of control and 102 % of control | T/C (endpoint: mean survival time, dose: 50.0 mg/kg/injection, schedule: Q01DX009 (ip), vehicle: saline + Tween-80 + alcohol): 97 % of control and 100 % of control | T/C (endpoint: mean survival time, dose: 100.0 mg/kg/injection, schedule: Q01DX009 (ip), vehicle: saline + Tween-80 + alcohol): 99 % of control and 103 % of control | T/C (endpoint: mean survival time, dose: 200.0 mg/kg/injection, schedule: Q01DX009 (ip), vehicle: saline + Tween-80 + alcohol): 94 % of control and 100 % of control | T/C (endpoint: mean survival time, dose: 400.0 mg/kg/injection, schedule: Q01DX009 (ip), vehicle: saline + Tween-80 + alcohol): 97 % of control and 100 % of control

CCC1CC2CN(CCc3c([nH]c4ccccc34)C(C(=O)OC)(c3cc4c(cc3OC)N(C)C3C(O)(C(=O)OC)C(OC(C)=O)C5(CC)C=CCN6CCC43C65)C2)C1 (stereo not drawn)
T/C (endpoint: median survival time, dose: 0.06 mg/kg/injection, schedule: Q01DX009 (ip), vehicle: saline): 102 % of control | T/C (endpoint: median survival time, dose: 0.13 mg/kg/injection, schedule: Q01DX009 (ip), vehicle: saline): 103 % of control | T/C (endpoint: median survival time, dose: 0.25 mg/kg/injection, schedule: Q01DX009 (ip), vehicle: saline): 105 % of control | T/C (endpoint: median survival time, dose: 0.5 mg/kg/injection, schedule: Q01DX009 (ip), vehicle: saline): 116 % of control | T/C (endpoint: median survival time, dose: 0.5 mg/kg/injection, schedule: Q01DX009 (ip), vehicle: water): 113 % of control | T/C (endpoint: median survival time, dose: 1.0 mg/kg/injection, schedule: Q01DX009 (ip), vehicle: saline): 120 % of control | T/C (endpoint: median survival time, dose: 1.0 mg/kg/injection, schedule: Q01DX009 (ip), vehicle: water): 116 % of control | T/C (endpoint: median survival time, dose: 2.0 mg/kg/injection, schedule: Q01DX009 (ip), vehicle: water): 104 % of control

[O-]/[N+](=C\c1ccccc1)C1CCCCC1
T/C [1]: 94 % of control | T/C [2]: 95 % of control | T/C [3]: 95 % of control

NC(=O)c1cnn2ccn(C3OC(CO)C(O)C3O)c12 (stereo not drawn)
T/C (endpoint: median survival time, dose: 9.63 mg/kg/injection, schedule: Q01DX005 (ip), vehicle: water): 102 % of control | T/C (endpoint: median survival time, dose: 19.25 mg/kg/injection, schedule: Q01DX005 (ip), vehicle: water): 94 % of control | T/C (endpoint: median survival time, dose: 38.5 mg/kg/injection, schedule: Q01DX005 (ip), vehicle: water): 104 % of control | T/C (endpoint: median survival time, dose: 77.0 mg/kg/injection, schedule: Q01DX005 (ip), vehicle: water): 100 % of control | T/C (endpoint: median survival time, dose: 154.0 mg/kg/injection, schedule: Q01DX005 (ip), vehicle: water): 93 % of control
